Assay results taken from patent US20090247634A1, “Methods for identifying modulators of eoxin formation” (priority 2006, published 2009).
“And” between values parts separate entries of the source, which are not always exact repeats. Equal values may be shown once. Values belong to the molecule of their own block, whether it stands above or below them.

Key:
eosinophils [1] = experiment: Oxidative metabolism of eosinophils, lucigenin-enhanced chemiluminescence; type: cell-based, human
Method: (§1) Neutrophil and eosinophil granulocytes were purified from peripheral whole blood using a Percoll gradient and the magnetic cell separation system (MACS).
(§2) Granulocytes were primed for 30 minutes at 37° C. with either IL-5 (10.5 ng/mL) or GM-CSF (10.5 ng/mL) and subsequently stimulated with IL-5 (100 ng/mL), GM-CSF (100 ng/mL), LTB4 (10^−7M) or Eoxin (10^−8-10^−6M). Oxidative metabolism was measured by a lucigenin-enhanced chemiluminescence (CL) assay.

[2] = test system: confluent bovine endothelium cells; experiment: Endothelial cell barrier function (TEER), Example 6a; type: cell-based; conditions: for plasma leakage / change in TEER: 10^−7 and 10^−8 M; for potency relative to the most potent 5-lipoxygenase derived leukotrienes: FIG. 22
Method: Bovine aorta endothelial cells (BAEC) and human umbilical vein endothelial cells (HUVEC) were isolated and cultured with calf serum or human serum. BAEC or HUVEC in the first to fifth passages were detached by brief (2 min) trypsin-EDTA treatment (0.25% trypsin/0.01% EDTA) and replated onto 3.0 μm pore size polycarbonate filters (Tissue Culture inserts, 10 mm; NUNC, Roskilde, Denmark) or, for the purpose of visual inspection, 0.2 μm pore size Anopore inorganic membrane (transparent when wet). In order to promote cellular differentiation and enhance attachment of EC, the filters were pretreated with 50 μl Biomatrix 1 (167 μg/ml) and air-dried. EC were seeded at a density of 2×10^5 cells per filter and incubated in culture medium at 37° C. in a humidified atmosphere of 5% CO2 in air. The EC were grown to confluent monolayers, as assessed by daily microscopic observation, in transparent 0.2 μm pore size filters and measurement of the electrical resistance across the monolayer. Under these experimental conditions maximal resistance is obtained at day 7 postseeding, at which day the EC monolayers were then used in the experiments.
Rapid changes in endothelial cell (EC) barrier function in response to various arachidonic acid metabolites were analysed through continuous registration of transendothelial electrical resistance (TEER) with electrodes on each side of EC monolayer^18. For measurement of TEER, the filter insert with ECs was transferred to a resistance measurement chamber (Endohm-12, World Precision Instruments, Sarasota, Fla., USA) modified so as to assure exact positioning of the electrodes in relation to each other and to the filter insert daring repeated measurements. The chamber (low compartment) and the filter insert (upper compartment) were filled with 2 ml and 400 μl culture medium, respectively. All measurements were made at 37° C. with the equipment placed in a cell culture incubator. Direct readings of the electrical resistance were given by an ohmmeter (Evom, World Precision Instruments, Sarasota, Fla., US) connected to the electrodes of the resistance chamber. The electrical resistance of individual EC monolayers was obtained by subtracting the resistance of the corresponding naked filter coated with Biomatrix as measured prior to seeding of the EC. Thus, TEER values represent the resistance of the EC monolayer solely and depend on the development of tight junctions between adjoining endothelial cells.

eosinophils [3] = experiment: Inhibitor studies on formation of Eoxin C4 and LTC4 in eosinophils; type: cell-based, human; conditions: 2 min preincubation, A23187 (1 μM) and arachidonic acid, 5 min, 37° C.
Method: Isolated eosinophils (5-10×10^6/sample) were resuspended in phosphate buffered saline (1 ml/sample) and preincubated for 2 minutes in 37° C. prior to stimulation with Eox A4 (10 μM), LTA4 (10 μM) or both for 5 minutes in 37° C. Alternatively, for inhibitor studies, eosinophils were preincubated for 2 minutes in 37° C. in presence of BW70C (1 μM) or MK886 (10 μM) prior to stimulation with ionophore A23187 (1 μM) and arachidonic acid (40 μM) for 5 minutes in 37° C. The reactions were terminated by addition of three volumes of methanol. Metabolites were detected and quantified utilising Waters 996 photodiode array spectrophotometer connected to Waters 1996 HPLC system.

eosinophils [4] = experiment: Biosynthesis of 14,15-LTC4 and LTC4 in eosinophils (RP-HPLC); type: cell-based, human; conditions: ionophore A23187 (1 μM), 5 min, 37° C.; one line per donor 1-11
Method: (§3) Human eosinophils contain abundant amounts of both 15-lipoxygenase and 5-lipoxygenase. […] The cells were incubated for five minutes at 37° C. and the amounts of 14,15-LTC4 and LTC4 were analyzed with RP-HPLC. […] Therefore, measurement of these metabolites is considered to reflect the total formation of 15-lipoxygenase derived cysteinyl-containing 14,15-leukotrienes and 5-lipoxygenase derived cysteinyl-containing leukotriens, respectively.
(§4) Isolated eosinophils (1-20×10^6/sample) were resuspended in phosphate buffered saline (1 ml/sample) and pre-incubated for 2 minutes in 37° C. (in presence or absence of indomethacin, 1 μM) prior to stimulation with ionophore A23187 (1 μM)/arachidonic acid (1 or 10 μM)/A23187 plus arachidonic acid/PGD2 (1 μM)/LTC4 (1 μM)/IL-5 (10 ng/ml)/14,15-LTC4 (10 μM) or 14,15-LTD4 (10 μM) for indicated time periods at 37° C. The incubations were terminated by addition of one volume of methanol (for analysis by RP-HPLC). For subsequent analysis by enzyme immunoassay (EIA), reactions were terminated by rapid cool off, 0° C., before centrifugation at 1200×g, 5 min. Supernatants were transferred to cryo tubes and stored in −70° C. until analyzed.
In order to get rid of cellular debris and proteins, centrifugation at 1200×g for 5 min. was performed. Supernatants were evaporated under reduced pressure and the residues resolved in methanol and transferred to a test tube. Samples were thereafter evaporated to dryness under a stream of nitrogen, and finally resuspended in 200 μl mobile phase (acetonitril:methanol:H20:acetic acid, 29:19:72:0.8, pH adjusted to 5.6 with NH3 for analysis of leukotrienes and 14,15-leukotrienes, and methanol:water:trifluoroacetic acid 70:30:0.007 for analysis of monohydroxy acids). The extracted samples were subjected to analysis in a reverse phase HPLC system as described. Briefly, samples were applied to a octadecyl reverse phase column (Chromabond ^18C, Macherey-Nagel, Duren, Germany) and elution rate was 1.2 ml/minute.

eosinophils [5] = experiment: Receptor mediated activation of 14,15-LTC4 biosynthesis in eosinophils (EIA); type: cell-based, human; conditions: LTC4 (1 μM), PGD2 (1 μM) or IL-5 (10 ng/ml), 5 min, 37° C.
Method: A possible receptor mediated activation of 14,15-LTC4 formation was investigated by using the allergen induced mast cell mediators LTC4 and prostaglandin (PG) D2 as well as IL-5, which is a potent eosinophil activator. Isolated eosinophils (10×10^6/sample) were incubated for 5 min, at 37° C. with LTC4 (1 μM), PGD2 (1 μM) or IL-5 (10 ng/ml). Leukotriene C4, PGD2 and IL-5 all induced release of 14,15-LTC4 from eosinophils after 5 min of incubation (table 2).
as §4
Supernatants were diluted in EIA buffer and analyses were performed according to the manufacturer's protocol. The optical density (OD) from the EIA determinations was used to calculate % B/B0 according to the relationship: […]

Hodgkin cell line L1236 = experiment: Inhibition of EoxC4 formation in the human cell line L1236; type: cell-based
Method: […] After pre-incubation with the test substance for 5 minutes, arachidonic acid (40 μM) was added. Incubation was stopped after 2 minutes with addition of one volume of methanol. Each test substance concentration was incubated in duplicate.
Cells and cell debris were removed by centrifugation (2600 rpm, 6 min) from the samples. The supernatant was diluted with water and then transferred to a washed and equilibrated extraction cartridge, Oasis HLB 1 cc 10 mg (Waters, Sweden). The metabolites were eluted with methanol and diluted with water before injected to the HPLC system.
RP-HPLC was performed on a Nova Pak C18 column (2.1×150 mm, Waters AB, Sweden). The initial mobile phase consists of 100% A (0.05% (8.7 mM) acetic acid, with pH adjusted to 5.6 with ammonium) at a flow rate at 0.4 mL/min. A linear gradient was started after five minutes to 36% B (60:40 acetonitrile:methanol) at 20 minutes. The mobile phase was than held isocratic at 64:36, A:B for another 20 minutes. Column effluent was monitored using diode array detection (PDA 996, Waters AB, Sweden) and UV spectra were acquired between 200-340 nm.
[…] Incubation and extraction was performed as described above.

eosinophils [6] = experiment: Metabolism in eosinophils after 5 min of incubation
Method: as §3

neutrophils = experiment: Oxidative metabolism of neutrophils, lucigenin-enhanced chemiluminescence; type: cell-based, human
Method: as §1, §2

[7] = Non-enzymatic metabolism during incubation at 37° C.; type: physicochemical; conditions: 60 min incubation at 37° C.
Method: In order to analyze if eosinophils can metabolize 14,15-LTC4 to 14,15-LTD4 and 14,15-LTE4, eosinophils were incubated with synthetic 14,15-LTC4 or 14 (R)-cysteinyl-glycyl-15(S)-hydroxy-5,8,10,12(Z,Z,E,E)-eicosatetraenoic acid (14,15-LTD4) for 60 min at 37° C. The metabolites formed were analyzed with product ion scan at 497.2 m/z for 14,15-LTD4 and 440.2 m/z for 14,15-LTE4. The retention time and mass spectrum of a product formed (Metabolite 2) from 14,15-LTC4 were identical to synthetic 14,15-LTD4 (FIG. 30B), and a product formed (Metabolite 3) after incubation with 14,15-LTD4 had identical retention time and mass spectrum as synthetic 14 (R)-cysteinyl-15(S)-hydroxy-5,8,10,12(Z,Z,E,E)-eicosatetraenoic (14,15-LTE4) (FIG. 30C). […] (data not shown). Basically, the product ion mass spectra of 14,15-leukotrienes and corresponding 5-lipoxygenase derived cysteinyl-leukotrienes are almost identical. However, 14,15-leukotrienes form a fragment at 205 m/z, whereas the corresponding fragment in 5-lipoxygenase derived cysteinyl-leukotrienes is at 189 m/z (FIG. 31). These collision induced dissociation products are probably formed by a cleavage next to the carbon where the cysteinyl group is positioned, which is at carbon 14 for 14,15-leukotrienes and carbon 6 for leukotrienes.

Molecule: CCCCC[C@H](O)[C@@H](/C=C/C=C/C=C\C/C=C\CCCC(=O)O)SC[C@H](N)C(=O)O [EoxE4, 14 (R)-cysteinyl-15 (S)-hydroxy-5,8,10,12 (Z,Z,E,E)-eicosatetraenoic acid]
radical production by IL-5 primed eosinophils (eosinophils [1]; IL-5 (10.5 ng/mL) primed, Eoxin 10^−8-10^−6M): broad dose-related induction of the radical production | responders (eosinophils [1]; IL-5 primed eosinophils): 3 of 6 subjects | plasma leakage / change in TEER [2]: induce significant plasma leakage | potency relative to the most potent 5-lipoxygenase derived leukotrienes [2]: about five to ten times less potent

Molecule: CC(/C=C/c1cccc(Oc2ccc(F)cc2)c1)N(O)C(N)=O (stereo not shown) [BW70C]
LTC4 peak (LTC4 formation) (eosinophils [3]; BW70C 1 μM): totally abolished

Molecule: CNc1ccc2oc(C[C@H]3O[C@@]4(CC[C@H]3C)O[C@H]([C@H](C)C(=O)c3ccc[nH]3)[C@H](C)C[C@H]4C)nc2c1C(=O)O [Compound A23187]
14,15-LTC4 (eosinophils [4]): 0 pmol/10^7 | LTC4 (eosinophils [4]): 198 pmol/10^7 and 494 pmol/10^7 and 82 pmol/10^7 and 108 pmol/10^7 and 64 pmol/10^7 and 326 pmol/10^7 and 170 pmol/10^7 and 30 pmol/10^7 and 264 pmol/10^7 and 50 pmol/10^7 and 40 pmol/10^7

14,15-LTC4 (eosinophils [5]): 43.8 ± 16.9 pg/10^7 cell
Molecule: CCCCC[C@H](O)/C=C/[C@H]1C(=O)C[C@H](O)[C@@H]1C/C=C\CCCC(=O)O [PGD2, prostaglandin D2]

Molecule: CCCCCC#CCC#CCC#CCC#CCCCC(=O)O [ETYA, Eicosatetraynoic acid]
formation of EoxC4 (Hodgkin cell line L1236; ETYA 10^−4-4 M, FIG. 26): completely blocked | formation of EoxD4 (Hodgkin cell line L1236; ETYA 10^−4-4 M, FIG. 26): completely blocked | formation of EoxC4 (Hodgkin cell line L1236; ETYA 10^−5-5 M): decreased | formation of EoxD4 (Hodgkin cell line L1236; ETYA 10^−5-5 M): decreased

Molecule: CC(C)c1ccc2c(c1)c(SC(C)(C)C)c(CC(C)(C)C(=O)O)n2Cc1ccc(Cl)cc1 [MK886]
EoxC4 synthesis (eosinophils [3]; MK886 10 μM): blocked

metabolism in eosinophils (eosinophils [6]): almost no metabolism | 14,15-LTC4 (eosinophils [5]): 56.2 ± 42.5 pg/10^7 cell
Molecule: CCCCC/C=C\C\C=C/C=C/C=C/[C@@H](SC[C@H](NC(=O)CC[C@H](N)C(=O)O)C(=O)NCC(=O)O)[C@@H](O)CCCC(=O)O [LTC4, leukotriene C4]

14,15-LTC4 (eosinophils [5]): 131 ± 4.9 pg/10^7 cell
Molecule: IL-5: IL-5, which is a potent eosinophil activator

Molecule: GM-CSF: the cytokine GM-CSF, a known activator of the oxidative metabolism
oxygen free radical production by non-primed neutrophils (neutrophils; non-primed blood neutrophils, GM-CSF 100 ng/mL, LTB4 10^−7M, Eoxin 10^−8-10^−6M): induced the oxygen free radical production

non-enzymatic metabolism [7]: no non-enzymatic metabolism
Molecule: CCCCC[C@H](O)[C@@H](/C=C/C=C/C=C\C/C=C\CCCC(=O)O)SC[C@H](N)C(=O)NCC(=O)O [EoxD4, 14 (R)-cysteinyl-glycyl-15 (S)-hydroxy-5,8,10,12 (Z,Z,E,E)-eicosatetraenoic acid]
plasma leakage / change in TEER [2]: induce significant plasma leakage | potency relative to the most potent 5-lipoxygenase derived leukotrienes [2]: about five to ten times less potent | radical production by GM-CSF primed neutrophils (neutrophils; GM-CSF (10.5 ng/mL) primed, Eoxin 10^−8-10^−6M): induced the radical production by primed cells in a dose-dependent manner | responders (neutrophils; GM-CSF primed neutrophils): 7-10 subjects of 13
